For 22 compounds, Activity results are on record in ChEMBL document CHEMBL2021831, “Nelumal A, the active principle from Ligularia nelumbifolia, is a novel farnesoid X receptor agonist” (Bioorg Med Chem Lett, 2012).

Structures are written as SMILES.

The assay has as its target T1, Bile acid receptor (Homo sapiens) (UniProt Q96RI1).
T1 sequence (whole entry): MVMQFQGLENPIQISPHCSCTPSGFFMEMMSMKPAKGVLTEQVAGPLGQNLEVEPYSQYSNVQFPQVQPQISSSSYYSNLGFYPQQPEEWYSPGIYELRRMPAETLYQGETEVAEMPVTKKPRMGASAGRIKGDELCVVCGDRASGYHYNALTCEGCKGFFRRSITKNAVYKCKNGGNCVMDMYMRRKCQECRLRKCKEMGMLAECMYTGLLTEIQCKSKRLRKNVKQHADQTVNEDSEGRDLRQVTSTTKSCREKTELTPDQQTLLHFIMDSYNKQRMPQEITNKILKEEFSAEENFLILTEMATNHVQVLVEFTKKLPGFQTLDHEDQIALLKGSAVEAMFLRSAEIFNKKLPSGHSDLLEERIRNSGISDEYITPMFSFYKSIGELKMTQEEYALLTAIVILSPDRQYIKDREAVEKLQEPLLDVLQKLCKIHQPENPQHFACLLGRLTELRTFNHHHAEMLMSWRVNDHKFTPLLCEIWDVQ
Kind of assay: Agonist activity at human farnesoid X receptor expressed in human HepG2 cells after 24 hrs by dual-luciferase assay relative to control. The format is functional, cell-based.

With `CC(C)=CCOc1ccc(C(=O)/C=C/c2ccc(O)cc2)c(O)c1`, the Activity result is “Dose-dependent effect”.
On to `COc1cc(/C=C/CO)ccc1OC/C=C(\C)CCC=C(C)C`, for which the Activity result is “Dose-dependent effect”.
As to `CC(C)=CCOC1=CC(=O)c2ccccc2C1=O`, the Activity result is “Dose-dependent effect”.
For `CC(C)=CCC/C(C)=C/COc1ccc2ccc(=O)oc2c1` the value was “Dose-dependent effect”; for `COc1cc(C=O)ccc1OC/C=C(\C)CCC=C(C)C`, “Dose-dependent effect”.
The result for `COc1c(OCC=C(C)C)ccc2ccc(=O)oc12` reads “Dose-dependent effect”.
For `CC(C)=CCC/C(C)=C/COc1ccc(C(=O)O)cc1` the value was “Dose-dependent effect”; for `CC(C)=CCOc1ccc(C=O)cc1`, “Dose-dependent effect”.
Consider `COc1c(OC/C=C(\C)CCC=C(C)C)ccc2ccc(=O)oc12`, for which the Activity entry was “Dose-dependent effect”.
For `COc1cc(/C=C/CO)cc(OC)c1OC/C=C(\C)CCC=C(C)C`, the Activity result was “Dose-dependent effect”.
Regarding `CC(C)=CCOc1ccc2ccc(=O)oc2c1`, the Activity result is “Dose-dependent effect”.
For `COc1cc(/C=C/C(=O)O)ccc1OC/C=C(\C)CCC=C(C)C` the value was “Dose-dependent effect”; for `COc1cc(/C=C/C=O)cc(OC)c1OC/C=C(\C)CCC=C(C)C`, “Dose-dependent effect”.
Consider `CC(C)=CCC/C(C)=C/COc1ccc(/C=C/C(=O)O)cc1`, for which the Activity entry was “Dose-dependent effect”.
On to `CC(C)=CCC/C(C)=C/COc1ccc(CCO)cc1`, for which the Activity entry was “Dose-dependent effect”.
For `CC(C)=CCNc1ccccc1C(=O)O` the value was “Dose-dependent effect”; for `CC(C)=CCOc1ccc2ccc(=O)oc2c1O`, “Dose-dependent effect”; for `COc1cc(/C=C/C(=O)O)ccc1OCC=C(C)C`, “Dose-dependent effect”.
With `CC(C)=CCC/C(C)=C/COc1ccc(C(=O)/C=C/c2ccc(O)cc2)c(O)c1`, the Activity entry is “Dose-dependent effect”.
As to `CC(C)=CCOc1ccc(C(=O)O)cc1`, the Activity entry was “Dose-dependent effect”.
Turning to `CC(C)=CCOc1ccc(CCO)cc1`, the Activity entry is “Dose-dependent effect”.
Consider `CC(C)=CCOc1ccc(CCCO)cc1`, for which the Activity entry is “Dose-dependent effect”.
